One series deals with T1, UGT2B7 (Homo sapiens, UniProt P16662).
T1 sequence (P16662 24-529): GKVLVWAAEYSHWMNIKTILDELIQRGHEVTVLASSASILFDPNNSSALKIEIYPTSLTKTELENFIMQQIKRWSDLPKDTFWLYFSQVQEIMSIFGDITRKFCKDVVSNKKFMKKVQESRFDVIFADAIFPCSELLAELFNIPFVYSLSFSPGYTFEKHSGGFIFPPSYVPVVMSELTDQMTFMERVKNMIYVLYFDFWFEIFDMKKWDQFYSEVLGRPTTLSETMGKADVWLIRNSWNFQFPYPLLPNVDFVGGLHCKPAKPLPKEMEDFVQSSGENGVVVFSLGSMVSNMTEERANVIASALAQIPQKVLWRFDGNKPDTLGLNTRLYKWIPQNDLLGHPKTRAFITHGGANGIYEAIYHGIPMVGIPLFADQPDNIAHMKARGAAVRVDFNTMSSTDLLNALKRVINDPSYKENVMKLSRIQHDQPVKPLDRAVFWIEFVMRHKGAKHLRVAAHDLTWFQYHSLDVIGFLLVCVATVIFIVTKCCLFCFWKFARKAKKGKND
The following applies: ref Veal et al., 1995; Barbier et al., 2000; cited from earlier work.

The next series addresses T2, UGT1A8 (Homo sapiens, UniProt Q9HAW9).
T2 sequence (Q9HAW9 26-530): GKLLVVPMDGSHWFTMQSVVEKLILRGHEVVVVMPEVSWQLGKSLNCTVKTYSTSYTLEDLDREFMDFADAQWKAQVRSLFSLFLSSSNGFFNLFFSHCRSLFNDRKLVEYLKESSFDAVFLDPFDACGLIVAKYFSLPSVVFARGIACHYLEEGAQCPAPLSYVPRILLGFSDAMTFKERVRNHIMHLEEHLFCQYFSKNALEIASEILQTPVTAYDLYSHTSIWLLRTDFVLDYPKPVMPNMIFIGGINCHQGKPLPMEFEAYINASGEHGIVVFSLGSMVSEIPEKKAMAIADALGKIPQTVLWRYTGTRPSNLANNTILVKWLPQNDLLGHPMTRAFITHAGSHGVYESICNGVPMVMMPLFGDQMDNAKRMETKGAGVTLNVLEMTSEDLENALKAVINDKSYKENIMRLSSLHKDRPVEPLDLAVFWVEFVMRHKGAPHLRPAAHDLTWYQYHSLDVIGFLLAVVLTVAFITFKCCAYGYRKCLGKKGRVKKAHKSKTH
Kind of series: in vitro. The following applies: UGT1A8 Supersomes, pH 7.5, probe aprepitant […] (Km), AP-G formation.

Series [1] relates to human intestinal microsomes (HIM).
Series [2] has as its target T3, UGT1A3 (Homo sapiens, UniProt P35503).
T3 sequence (P35503 29-534): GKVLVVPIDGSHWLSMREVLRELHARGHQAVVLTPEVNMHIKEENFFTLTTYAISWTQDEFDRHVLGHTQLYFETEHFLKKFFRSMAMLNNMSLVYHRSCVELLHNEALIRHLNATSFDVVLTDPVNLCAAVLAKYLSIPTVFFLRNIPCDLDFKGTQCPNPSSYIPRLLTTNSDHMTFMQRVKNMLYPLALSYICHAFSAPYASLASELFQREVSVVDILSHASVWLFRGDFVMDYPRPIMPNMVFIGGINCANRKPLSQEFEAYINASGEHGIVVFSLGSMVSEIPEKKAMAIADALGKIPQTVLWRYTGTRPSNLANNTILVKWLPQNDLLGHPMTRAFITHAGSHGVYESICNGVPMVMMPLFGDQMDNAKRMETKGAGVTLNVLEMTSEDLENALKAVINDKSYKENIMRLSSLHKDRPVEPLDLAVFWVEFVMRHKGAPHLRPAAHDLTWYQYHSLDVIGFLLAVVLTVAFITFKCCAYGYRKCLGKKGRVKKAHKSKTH
The series can be described thus: in vitro. The following applies: UGT1A3 Supersomes, pH 7.5, probe aprepitant […] µM (Km), AP-G formation.

Series [3] deals with human liver microsomes (HLM). The series can be described thus: Inhibition of aprepitant glucuronidation by UGT specific inhibitors in HLM. The series is classed as in vitro ADME. The following applies: for inhibition of aprepitant glucuronidation: aprepitant at 5 µM and at the Kms.
The target in series [4] is T3, UGT1A3. Kind of series: Inhibition of aprepitant glucuronidation by UGT specific inhibitors in UGT1A3. The following applies: UGT1A3 Supersomes, pH 7.5, probe aprepitant 5 µM, AP-G formation.
Series [5] addresses T4, UGT1A4 (Homo sapiens, UniProt P22310).
T4 sequence (P22310 29-534): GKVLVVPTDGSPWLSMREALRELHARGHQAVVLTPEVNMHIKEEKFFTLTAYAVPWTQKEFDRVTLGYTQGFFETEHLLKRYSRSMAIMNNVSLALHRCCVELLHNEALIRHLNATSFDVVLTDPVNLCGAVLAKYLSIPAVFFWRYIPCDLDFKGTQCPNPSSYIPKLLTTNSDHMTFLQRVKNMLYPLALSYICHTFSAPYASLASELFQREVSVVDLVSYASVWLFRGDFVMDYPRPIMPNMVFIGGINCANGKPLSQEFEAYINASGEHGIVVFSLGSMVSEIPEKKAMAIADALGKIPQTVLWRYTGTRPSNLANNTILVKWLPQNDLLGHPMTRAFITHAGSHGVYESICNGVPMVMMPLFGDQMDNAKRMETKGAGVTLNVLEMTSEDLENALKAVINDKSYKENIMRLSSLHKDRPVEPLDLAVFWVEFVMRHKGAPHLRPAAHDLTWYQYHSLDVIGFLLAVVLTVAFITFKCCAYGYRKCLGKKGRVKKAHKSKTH

In series [6] the target is T4, UGT1A4. Kind of series: Inhibition of aprepitant glucuronidation by UGT specific inhibitors in UGT1A4. The following applies: UGT1A4, aprepitant 5 µM, 200 µM hecogenin.
Substrate in the series “not read”: C[C@@H](O[C@H]1OCCN(Cc2n[nH]c(=O)[nH]2)[C@H]1c1ccc(F)cc1)c1cc(C(F)(F)F)cc(C(F)(F)F)c1
Kind of series: not read. The following applies: mean ± SE, pH 7.5, 37.0 °C.

Setting [7] is: aprepitant 5 µM, 1000 µM sulfinpyrazone or 200 µM hecogenin.

Usually inhibition stands for the relative decrease from the control value, in per cent. A lower inhibition goes with a weak effect.

“And” between values parts separate entries of the source, which are not always exact repeats. Equal entries are not always repeated.

`Cc1cn([C@H]2C[C@H](N=[N+]=[N-])[C@@H](CO)O2)c(=O)[nH]c1=O` [AZT, 3’-azido-3’-deoxythymidine]: the “share of glucuronidation catalyzed by UGT2B7” value on UGT2B7 is 60–70%.
Take `O=C(O)Cc1ccccc1Nc1c(Cl)cccc1Cl` [diclofenac]: on UGT1A8, the inhibition at 60 min, 500 µM turned out to be 66.7%. Further, the inhibition in series [1] was 100%.
Take `O=C1C(CC[S+]([O-])c2ccccc2)C(=O)N(c2ccccc2)N1c1ccccc1` (stereo not shown) [sulfinpyrazone]: the inhibition at 60 min, 1000 µM against UGT1A3 [2] and at UGT1A3 [4] was 100% each time. The “Percent inhibition of aprepitant glucuronidation” value came out at 22.2% in [3] (setting [7]) and 22.1% in series [3] (aprepitant […] µM (Km for UGT1A3), 1000 µM sulfinpyrazone). Moreover, in series [3], the “inhibition of aprepitant glucuronidation” value is listed as less than 25%.
hecogenin had an inhibition against UGT1A4 [5] of 83.9%. The “Percent inhibition of aprepitant glucuronidation” value in [3] (setting [7]) is given as 100%; in [3] (aprepitant […] (Km for UGT1A4), 200 µM hecogenin), 80.8%; at UGT1A4 [6] it was 100%. Moreover, in series [3], the “inhibition of aprepitant glucuronidation” value was “high inhibition”.

B1: UGT1A4 (Homo sapiens) (protein)
chain: T4 sequence (P22310 29-534)
For B1, in the series “not read” (other: UGT1A4, Michaelis-Menten), the K0.5 is 161.6 ± 15.6 µM and 162 ± 16 µM.

B2: UGT1A3 (Homo sapiens) (protein)
chain: T3 sequence (P35503 29-534)
Take B2: the K0.5 in the series “not read” (other: UGT1A3, Michaelis-Menten) is 69.4 ± 1.9 µM and 69 ± 2 µM.

B3: UGT1A8 (Homo sapiens) (protein)
chain: T2 sequence (Q9HAW9 26-530)
On to B3, for which the K0.5 in “not read” (other: UGT1A8, Hill equation (S50)) is 197.1 ± 28.2 µM and 197 ± 28 µM.
